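In this assay, cells in 96-well plates receive the compound at five concentrations for 48 hours. Endpoints are linearly interpolated between the surrounding concentrations. GI50 = concentration required for 50% inhibition of growth. TGI is the concentration that stops growth completely.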
What was measured:
Assay in all cases: NCI-60 cell line screen, 48 h
KM12 colon = tested on: KM12 colon
SF-295 CNS = tested on: SF-295 CNS
SK-OV-3 ovarian = tested on: SK-OV-3 ovarian
OVCAR-8 ovarian = tested on: OVCAR-8 ovarian
HCT-15 colon = tested on: HCT-15 colon
NCI-H522 lung = tested on: NCI-H522 lung
K-562 leukemia = tested on: K-562 leukemia
M14 melanoma = tested on: M14 melanoma
MALME-3M melanoma = tested on: MALME-3M melanoma

Compound | GI50 (KM12 colon) [µM] | TGI (KM12 colon) [µM] | GI50 (SF-295 CNS) [µM] | TGI (SF-295 CNS) [µM] | GI50 (SK-OV-3 ovarian) [µM] | TGI (SK-OV-3 ovarian) [µM] | GI50 (OVCAR-8 ovarian) [µM] | TGI (OVCAR-8 ovarian) [µM] | GI50 (HCT-15 colon) [µM] | TGI (HCT-15 colon) [µM] | GI50 (NCI-H522 lung) [µM] | TGI (NCI-H522 lung) [µM] | GI50 (K-562 leukemia) [µM] | TGI (K-562 leukemia) [µM] | GI50 (M14 melanoma) [µM] | TGI (M14 melanoma) [µM] | TGI (MALME-3M melanoma) [µM] | GI50 (MALME-3M melanoma) [µM]
COc1nc2c(cc1S(=O)(=O)c1ccccc1)CCc1c-2cnn1-c1ccccc1Cl | 4.49 | > 100 | 5.72 | > 100 | > 100 | > 100 | 8.7 | > 100 | 6.24 | > 100 | 3.02 | > 100 | 5.23 | > 100 | > 100 | > 100 | – | –
COc1ccc(/C=C(/C(=O)O)c2cc(OC)c(OC)c(OC)c2)cc1 | – | > 100 | – | – | – | > 100 | – | > 100 | – | – | – | 36.6 | – | > 100 | – | 99.1 | > 100 | –
COc1ccc(N=Cc2cc(OC)c(OC)c(OC)c2)cc1 | – | > 100 | – | – | – | > 100 | – | > 100 | – | > 100 | > 100 | > 100 | – | > 100 | – | – | > 100 | –
C[Si](C)(C)c1ccc(CC2(Cc3ccc([Si](C)(C)C)cc3)CCNC2)cc1 | – | 3.62 | – | 6.86 | – | 3.8 | – | 3.35 | – | 4.86 | – | 3.28 | – | 84.6 | – | 3.31 | 11.6 | –
COC(=O)c1c(OC)cccc1C(=O)O | – | > 100 | – | > 100 | – | > 100 | – | > 100 | – | > 100 | – | > 100 | – | > 100 | – | > 100 | > 100 | –
O=C1NC(=O)C2C(=O)NC(=O)C1C2(c1ccccc1)c1ccc(Cl)cc1 (stereo not drawn) | – | > 100 | – | > 100 | – | > 100 | – | > 100 | – | > 100 | – | > 100 | – | > 100 | – | > 100 | > 100 | –
O=[N+]([O-])c1ccc(NSc2ccccc2)cc1 | – | > 100 | – | 79 | – | 87.3 | – | 45.6 | – | > 100 | – | 39.4 | – | > 100 | – | 64.5 | > 100 | –
O=c1[nH]c(=O)n(C2CC(O)C(CO)O2)cc1C#Cc1c(F)c(F)c(F)c(F)c1F (stereo not drawn) | – | > 100 | – | > 100 | – | > 100 | – | > 100 | – | > 100 | – | – | – | > 100 | – | > 100 | > 100 | –
CN1CCCNCCN(CCc2ccccn2)CCCN(C)CC1 | – | > 100 | – | > 100 | – | > 100 | – | > 100 | – | > 62.6 | – | > 100 | – | > 66.1 | – | > 100 | > 100 | –
O=C1CC[C@H]2CNC(=O)C[C@H]2C1 | – | > 100 | – | > 100 | – | > 100 | – | > 100 | – | > 100 | – | > 100 | – | > 100 | – | > 100 | > 100 | –
CC(=O)OCCc1cccnc1/C=N/O | – | > 100 | – | > 100 | – | > 100 | – | > 100 | – | > 100 | – | > 100 | – | > 100 | – | > 100 | > 100 | –
CCCCn1/c(=N/C(=S)N(C)C)ss/c1=N\C(=S)N(C)C | – | > 100 | – | > 100 | – | > 100 | – | > 100 | – | > 100 | – | – | – | > 100 | – | > 100 | > 100 | –
CCOC(=O)CCCO | – | > 100 | – | > 100 | – | > 100 | – | > 100 | – | > 100 | – | > 100 | – | > 100 | – | > 100 | > 100 | –
CN(C)CCNC(=O)c1cccc2nc3c(Cl)cccc3nc12 | – | 30.4 | – | > 27.1 | – | > 31.6 | – | > 44.3 | – | 34.6 | – | > 100 | – | 8.74 | – | > 36.8 | 8.05 | –
CC1=C[C@@H]2Cc3occc3C(C)(C)[C@@H]2CC1 | – | 33.4 | – | 34.1 | – | > 100 | – | 37.5 | – | – | – | 28.6 | – | 42.6 | – | 47.1 | 44.2 | –
Cc1cc(C)nc(NS(=O)(=O)c2ccc(NC(=O)c3cccc4c(=O)c5ccccc5[nH]c34)cc2)n1 | – | 30.7 | – | 43.5 | – | 17.1 | – | 41.1 | – | 46.3 | – | 27.6 | – | 90.3 | – | 40.7 | 33.8 | –
O=C1Oc2cc3c(c4cccc1c24)OCN(c1ccc(Cl)cc1)C3 | – | > 63.6 | – | > 100 | – | > 100 | – | > 100 | – | > 64.7 | – | 30.8 | – | 53.2 | – | > 57.8 | > 60.7 | –
CC(C)(C)C1=NC(S)NC(CCC(=O)Nc2ccccc2[N+](=O)[O-])=C1 (stereo not drawn) | – | > 100 | – | > 100 | – | > 100 | – | > 100 | – | > 100 | – | – | – | > 100 | – | > 100 | > 100 | –

Compound | GI50 (KM12 colon) [µM] | TGI (KM12 colon) [µM] | GI50 (SF-295 CNS) [µM] | TGI (SF-295 CNS) [µM] | GI50 (SK-OV-3 ovarian) [µM] | TGI (SK-OV-3 ovarian) [µM] | GI50 (OVCAR-8 ovarian) [µM] | TGI (OVCAR-8 ovarian) [µM] | GI50 (HCT-15 colon) [µM] | TGI (HCT-15 colon) [µM] | GI50 (NCI-H522 lung) [µM] | TGI (NCI-H522 lung) [µM] | GI50 (K-562 leukemia) [µM] | TGI (K-562 leukemia) [µM] | GI50 (M14 melanoma) [µM] | TGI (M14 melanoma) [µM] | TGI (MALME-3M melanoma) [µM] | GI50 (MALME-3M melanoma) [µM]
Cc1c(C(=O)/C=C/c2cccc3ccccc23)[n+](=O)c2ccccc2n1[O-] | – | 27.1 | – | 29.7 | – | 32.6 | – | 24.9 | – | 27 | – | 19.8 | – | 36.5 | – | 26.9 | 34.9 | –
OCCNCO | – | > 100 | – | > 100 | – | > 100 | – | > 100 | – | > 100 | – | > 100 | – | > 100 | – | > 100 | – | –
NC1(CCCCCCCCCCC(=O)O)CNCCNCCNCCNC1 | – | > 100 | – | > 100 | – | > 100 | – | > 100 | – | – | – | > 100 | – | > 100 | – | > 100 | > 100 | –
Cc1nc2nnc(C)n2c2c1C(=O)Nc1ccccc1N2 | – | > 100 | – | > 100 | – | > 100 | – | > 100 | – | – | – | > 100 | – | > 100 | – | > 100 | > 100 | –
OCc1c(-c2cccc3ccccc23)sc(-c2cccc3ccccc23)c1CO | – | 26.4 | – | 28.2 | – | 29.3 | – | 25.7 | – | 27.9 | – | 22.9 | – | 31.3 | – | 28.9 | 24.5 | –
CC(=O)/C=C/c1cccc(N=S)c1 | – | 20.2 | – | 54.3 | – | > 81.9 | – | 31 | – | 31.9 | – | > 53.7 | – | > 35.9 | – | 22.4 | > 100 | –
Cc1cccc(C(C)(C)C)c1NC(=O)C(=O)Cc1nc2ccccc2s1 | – | > 100 | – | > 100 | – | > 100 | – | > 100 | – | > 100 | – | > 100 | – | > 100 | – | > 100 | > 100 | –
O=S(=O)(O)C(O)/C=C/c1ccccc1 (stereo not drawn) | – | > 100 | – | > 100 | – | > 100 | – | > 100 | – | > 100 | – | > 100 | – | > 100 | – | > 100 | > 100 | –
C[C@]12CCC(=O)C=C1CC[C@@H]1C2CC[C@]2(C)NC(=O)C(C#N)CC12 (stereo partly drawn) | – | – | – | > 100 | – | > 100 | – | > 100 | – | > 100 | – | – | – | > 100 | – | > 100 | > 100 | –
O=C(O/N=C1/CCC/C1=C\c1ccccc1)c1ccc([N+](=O)[O-])cc1 | – | > 100 | – | > 100 | – | > 100 | – | > 100 | – | > 100 | – | > 100 | – | > 100 | – | > 100 | > 100 | –
C1CN2N3CCCC23C1 (stereo not drawn) | – | > 100 | – | > 100 | – | > 100 | – | > 100 | – | > 100 | – | > 100 | – | > 100 | – | > 100 | > 100 | –
COc1cc([C@@H]2c3cc4c(cc3[C@@H](NC(=O)c3cccc([N+](=O)[O-])c3)C3COC(=O)[C@@H]32)OCO4)cc(OC)c1O (stereo partly drawn) | – | 10.8 | – | 3.99 | – | – | – | 7.06 | – | 4.31 | – | – | – | > 100 | – | > 19.8 | 4.77 | –
C/C(=N\NC(N)=S)c1ccc(C)cc1C | – | > 100 | – | > 100 | – | > 100 | – | > 100 | – | > 100 | – | – | – | > 100 | – | > 100 | > 100 | –
Cc1cccc2c3ccc4c(c3n(C)c12)C(=O)C=CC4=O | – | > 100 | – | > 100 | – | > 100 | – | > 100 | – | – | – | > 100 | – | > 100 | – | > 100 | > 100 | –
O=C(/C=C(\[O-])c1ccccc1)CCCCCCC(=O)/C=C(\[O-])c1ccccc1.O=C(/C=C(\[O-])c1ccccc1)CCCCCCC(=O)/C=C(\[O-])c1ccccc1.O=C(/C=C(\[O-])c1ccccc1)CCCCCCC(=O)/C=C(\[O-])c1ccccc1.[La+3].[La+3] | – | – | – | – | > 50 | > 50 | > 50 | > 50 | > 50 | > 50 | > 50 | > 50 | > 50 | > 50 | > 50 | > 50 | > 50 | > 50
O=C(N/N=C/c1cccc(O)c1O)N/N=C/c1cccc(O)c1O | – | > 100 | – | 46.2 | – | > 100 | – | > 100 | – | > 100 | – | – | – | > 100 | – | 34 | 74.4 | –
CCCCCCCCCCCCCCC1OC(=O)c2ccccc21 (stereo not drawn) | – | > 100 | – | > 100 | – | > 100 | – | > 100 | – | – | – | – | – | > 100 | – | > 100 | > 100 | –

— PubChem BioAssay (NCI)
